Where a SMILES comes first, the peptide text is derived from it. [ ]: non-standard residue; d: D form. dNMeF = CN[C@H](Cc1ccccc1)C(=O)O; NMeL = CN[C@@H](CC(C)C)C(=O)O; dNMeL = CN[C@H](CC(C)C)C(=O)O; NMeM = CN[C@@H](CCSC)C(=O)O; dNMeA = CN[C@H](C)C(=O)O
Settings: for PAMPA_Papp_Avg (apparent permeability): PAMPA

PAMPA_Papp_Avg (apparent permeability) [×10⁻⁶ cm/s] | membrane permeability in PAMPA (in words) | SMILES
3.35 |  | CC(C)C[C@@H]1NC(=O)[C@H]2CCCN2C(=O)[C@@H]2CCCN2C(=O)[C@H](CC(C)C)NC(=O)[C@@H](CC(C)C)NC(=O)[C@@H](C)N(C)C(=O)[C@@H](C)N(C)C(=O)[C@@H](C(C)C)NC1=O [Design D8.6, LPpLv*a*al] (cyclo(LP[dP]L[dV][dNMeA][dNMeA][dL]))
0.879 |  | CC(C)C[C@@H]1C(=O)N(C)[C@@H](CC(C)C)C(=O)N2CCC[C@@H]2C(=O)N[C@H](CC(C)C)C(=O)N[C@H](C)C(=O)N2CCC[C@@H]2C(=O)N2CCC[C@H]2C(=O)N[C@@H](C)C(=O)N[C@H](Cc2ccccc2)C(=O)N[C@H](CC(C)C)C(=O)N[C@@H](C(C)C)C(=O)N1C (single isomer, unassigned) [Design D11.9.p1, V*l*LplapPAfl]
3.34 |  | CC[C@@H](C)[C@H]1NC(=O)[C@@H](Cc2ccccc2)NC(=O)[C@@H]2CCCN2C(=O)[C@@H]([C@H](C)CC)NC(=O)[C@@H](Cc2ccccc2)NC(=O)[C@@H]2CCCN2C1=O [Design D6.1, iPfiPf] (cyclo(P[dF][dI]P[dF][dI]))
1.08 |  | CC(C)C[C@@H]1C(=O)N(C)[C@H](Cc2ccccc2)C(=O)N(C)[C@@H](CC(C)C)C(=O)N[C@H](C(C)C)C(=O)N[C@H](C)C(=O)N2CCC[C@@H]2C(=O)N2CCC[C@H]2C(=O)N[C@H](C)C(=O)N1C [Design D8.20, Pa*l*f*Lvap] (cyclo([dA][dNMeL][dNMeF][NMeL][dV][dA][dP]P))
1.27 |  | CC(C)C[C@@H]1NC(=O)[C@@H](CC(C)C)N(C)C(=O)[C@@H](CC(C)C)N(C)C(=O)[C@@H](CC(C)C)N(C)C(=O)[C@H](CC(C)C)NC(=O)[C@@H]2CCCN2C(=O)[C@H]2CCCN2C(=O)[C@H](Cc2ccccc2)NC1=O [SEQ ID NO 47, FpPL*l*l*lL] (cyclo(L[dNMeL][dNMeL][dNMeL]LF[dP]P))
0.71 |  | CC(C)C[C@H]1NC(=O)[C@@H](C(C)C)NC(=O)[C@H](CC(C)C)N(C)C(=O)[C@@H](Cc2ccccc2)NC(=O)[C@H](CC(C)C)N(C)C(=O)[C@H]2CCCN2C(=O)[C@@H]2CCCN2C(=O)[C@H]2CCCN2C(=O)[C@@H](C(C)C)NC(=O)[C@H]2CCCN2C1=O [Design D10.42, vlpvpPp*Lf*L] (cyclo([dP][NMeL][dF][NMeL][dV][dL][dP][dV][dP]P))
6.64 |  | CC(C)C[C@@H]1NC(=O)[C@@H](CC(C)C)NC(=O)[C@H]2CCCN2C(=O)[C@@H]2CCCN2C(=O)[C@@H](CC(C)C)NC(=O)[C@@H](CC(C)C)N(C)C(=O)[C@@H]2CCCN2C1=O [Design D7.5, LP*llPpl] (cyclo(LP[dNMeL][dL]P[dP][dL]))
0.0869 |  | CSCC[C@H]1C(=O)N(C)[C@H](C)C(=O)N[C@H](CC(C)C)C(=O)N2CCC[C@@H]2C(=O)N2CCC[C@H]2C(=O)N[C@@H](CC(C)C)C(=O)N2CCC[C@H]2C(=O)N2CCC[C@@H]2C(=O)N[C@H](C(C)C)C(=O)N1C [Design D9.24, pv*M*alpPLP] (cyclo(LP[dP][dV][NMeM][dNMeA][dL][dP]P))
0.824 |  | CC(C)C[C@@H]1C(=O)N[C@H](C)C(=O)N(C)[C@H](CC(C)C)C(=O)N2CCC[C@@H]2C(=O)N[C@H](CC(C)C)C(=O)N[C@@H](C)C(=O)N[C@H](CC(C)C)C(=O)N2CCC[C@@H]2C(=O)N1C [Design D8.25, lp*la*lplA] (cyclo(A[dL][dP][dNMeL][dA][dNMeL][dP][dL]))
 | significant permeability | CC(C)C[C@@H]1NC(=O)[C@H]2CCCN2C(=O)[C@@H](CC(C)C)NC(=O)[C@@H](CC(C)C)NC(=O)[C@@H](CC(C)C)N(C)C(=O)[C@H](C(C)C)NC(=O)[C@@H](C)NC(=O)[C@@H](C)N(C)C(=O)[C@@H]2CCCN2C1=O [Design D9.16, P*aaV*lllpL] (cyclo(LP[dNMeA][dA]V[dNMeL][dL][dL][dP]))
